Results as given in patent US20160030415A1, “TREATMENT AND PROPHYLAXIS OF KIDNEY DISEASES” (priority 2013, published 2016).

Tested on: Streptozocin (STZ) induced diabetic rats
Test: Study 1: HCQ and its combination with Losartan in renal damage, comparison with diabetic control
Format: in vivo, Wistar rats
Settings: after 8 weeks oral once daily, Losartan 5.5 mg/kg, Hydroxychloroquine 22.5 mg/kg; for GSH (% Naive) / GSH Mean ± SEM / TBARS (% Naive) / TBARS Mean ± SEM: kidney homogenate
Experimental: The Efficacy of the drugs was tested in two different models, one involving comparison with diabetic control (i.e. Diabetic Rats not treated with any medication) and the other involving comparison with the anti-diabetic control group (i.e. Diabetic rats administered Glimepiride) in two separate studies. 25 male Wistar rats weighing 150-250 g were divided randomly into 5 groups consisting of 5 animals each. Diabetes was induced in rats by single administration of streptozotocin (55 mg/kg/i.p) dissolved in 0.1 M-citrate buffer, pH 4.5. Group 1 (normal control) consisted of normal rats that neither received Streptozotocin (STZ) nor any test drug; Group 2 served as streptozotocin induced diabetic control. Group 3 was diabetic rats treated with Losartan (LT) (5.5 mg/kg); Group 4 was diabetic rats treated with Hydroxychloroquine (HCQ) (22.5 mg/kg), Group 5 was diabetic rats treated with combination of HCQ (22.5 mg/kg) and LT (5.5 mg/kg). The study drugs were dissolved/suspended in distilled water and administered orally once a day for eight weeks. Blood glucose levels and renal oxidative stress parameters including TBARS, GSH and total Protein in Kidney Homogenate were assessed after the completion of eighth week of the study.

Structure (SMILES)	Blood glucose level (% Control)	Blood glucose level Mean ± SEM	Total Protein in Kidney Homogenate (% Naive)	Total Protein in Kidney Homogenate Mean ± SEM [µg/mL]	GSH (% Naive)	GSH Mean ± SEM [nM/mg]	TBARS (% Naive)	TBARS Mean ± SEM [nM/mg]
CCN(CCO)CCCC(C)Nc1ccnc2cc(Cl)ccc12 (stereo not shown) [Hydroxychloroquine, 2-[{4-[(7-chloroquinolin-4-yl)amino]pentyl}(ethyl)amino]ethanol]	(62.64)) % Control	369.9 ± 42.3 mg/dL	(190.71) % Naive	1098.00 ± 23.12	(41.92) % Naive	0.827 ± 0.08	(178.29) % Naive	0.772 ± 0.06
CCCCc1nc(Cl)c(CO)n1Cc1ccc(-c2ccccc2-c2nn[nH]n2)cc1 [Losartan]	(98.57) % Control	582.1 ± 00^ mg/dl	(204.95) % Naive	1180.00	(41.92) % Naive	0.827	(186.61) % Naive	0.808
